These results are taken from patent US12655041B2, “Method for operating reverse osmosis membrane device, a slime control method, and a water treatment device” (priority 2021, dated 2026).

The test system of assay [1] is slime in a reverse osmosis membrane. The assay can be described thus: Test Example 1: evaluation of slime inhibition in reverse osmosis membrane (membrane fouling simulator, days to 100 kPa differential pressure). The arrangement: species or system microorganism. The note with it: days for differential pressure to reach 100 kPa; substrates ethanol 50 mg/L as C, ammonium chloride 10 mg/L as N, sodium dihydrogen phosphate 0.5 mg/L as P; 25° C.; no chemical added: 8. The protocol:
(§1) A substrate was added to raw water, and a biofouling effect of a microorganism was accelerated. Specifically, as substrates, ethanol, ammonium chloride and sodium dihydrogen phosphate were added to raw water so that the concentrations reached 50 mg/L as C, 10 mg/L as N and 0.5 mg/L as P, respectively, thereby producing water to be treated. The pH of the raw water (water to be treated) was 6 to 8, TOC was 1 mg/L, ORP was 300 mV, and the water temperature was 25° C.
This water to be treated was pressurized to 1.5 MPa with a pump and supplied as supply water (the water amount was 100 mL/min, the water pressure was 0.2 MPa, and the water temperature was 25° C.) to a concentrate compartment of an RO membrane device, and an RO membrane treatment was performed. […]
(§2) Upon the evaluation of slime inhibition in a reverse osmosis membrane, the number of days taken for the differential pressure to increase up to 100 kPa under conditions shown in Table 1 was measured using a membrane fouling simulator that is in Non-Patent Literature 1 (J. S. Vrouwenvelder et. al.), and the day where this differential pressure was reached was regarded as a day when biofouling occurred, that is, an occlusion day. It is evaluated that, as the number of days taken until this occlusion increases, slime can be inhibited more favorable.

For assay [2] the test system is unchanged. The assay can be described thus: Test Example 4: number of days for the differential pressure to reach 100 kPa. The arrangement: species or system microorganism. To be noted: days for differential pressure to reach 100 kPa; substrates 30 mg/L as C, 10 mg/L as N, 0.5 mg/L as P; 20° C.; no addition: 10. The protocol:
as §1
This water to be treated was pressurized to 1.5 MPa with a pump and supplied as supply water (the water amount was 100 mL/min, the water pressure was […], and the water temperature was 25° C.) to a concentrate compartment of an RO membrane device, and an RO membrane treatment was performed. As the RO membrane device, a device in which one vessel was filled with a 4-inch spiral RO membrane element of an aromatic polyamide-based RO membrane (manufactured by Nitto Denko Corporation, ES20) was used. The flow rate of the supply water was 3 to 10 m^3/h per 8-inch spiral module. A change in the differential pressure means a change in the difference of the pressure at each water-passing time after the beginning of measurement from 0 kPa that is a set pressure at the time of the beginning of the measurement.
as §2
A test was performed under the same conditions as in <Test Example 1> except that water to be treated prepared by adding, as substrates, ethanol, ammonium chloride and sodium dihydrogen phosphate to raw water so that the concentrations reached 30 mg/L as C, 10 mg/L as N and 0.5 mg/L as P, respectively, was used, the water temperature of the water to be treated was set and adjusted to 20° C., and the addition periods and addition concentrations of the slime inhibitors were set as shown in Table 2.
The oxidation-based slime inhibitor is continuously added “for 30 minutes”, and the water to be treated containing the chemical is continuously passed through the RO membrane device downstream thereof “for 30 minutes”.
The organic-based slime inhibitor is continuously added “for 30 minutes”, and the water to be treated containing the chemical is continuously passed through the RO membrane device downstream thereof “for 30 minutes”. […]

For the molecule `Cn1sc(Cl)cc1=O` [1-3, 5-chloro-2-methyl-4-isothiazolin-3-one], the “Number of days until occlusion” value in assay [1] was 15 days.

Consider `O=S(=O)([O-])NCl.[Na+]` [4-2, Sodium monochlorosulfamate], for which, in assay [2], the “Number of days until occlusion” value was determined as 12 days.

As for `O=S(=O)([O-])NCl.[Na+]` [4-3, Sodium monochlorosulfamate], in assay [2], the “Number of days until occlusion” value was found to be 30 days.

Consider `Cn1sc(Cl)cc1=O` [4-4, 5-chloro-2-methyl-4-isothiazolin-3-one], for which the “Number of days until occlusion” value in assay [2] worked out at 32 days.

Consider `Cn1sc(Cl)cc1=O` [4-5, 5-chloro-2-methyl-4-isothiazolin-3-one], for which, in assay [2], the “Number of days until occlusion” value worked out at 18 days.

Consider `O=S(=O)([O-])NCl.[Na+]` [Comparative Example 1-2, Sodium monochlorosulfamate], for which, in assay [1], the “Number of days until occlusion” value is 12 days.
